Counter-ions that a name gives are not always drawn. Like-named read-outs stand apart in the source and are kept apart here. Each block holds one compound with its values, some of them ahead of it.
Legend:
Assay type in all cases: biochemical
MMP-1 = target: T1, MMP-1 (Homo sapiens, UniProt P03956); assay: MMP-1 inhibition (thiopeptide or fluorescent peptide substrate)
T1 sequence (P03956 100-469): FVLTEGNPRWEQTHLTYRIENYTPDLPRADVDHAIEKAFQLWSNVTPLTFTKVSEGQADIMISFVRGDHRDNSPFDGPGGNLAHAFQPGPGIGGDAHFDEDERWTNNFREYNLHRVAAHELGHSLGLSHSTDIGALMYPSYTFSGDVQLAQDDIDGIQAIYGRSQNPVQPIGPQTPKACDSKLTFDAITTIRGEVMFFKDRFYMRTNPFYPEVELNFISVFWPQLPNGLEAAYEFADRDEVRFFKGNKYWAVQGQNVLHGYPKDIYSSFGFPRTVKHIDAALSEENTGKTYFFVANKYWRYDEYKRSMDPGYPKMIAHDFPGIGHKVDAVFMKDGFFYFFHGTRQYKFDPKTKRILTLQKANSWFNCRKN

MMP-13 = MMP-13 (Homo sapiens, UniProt P45452); assay: MMP-13 inhibition (thiopeptide or fluorescent peptide substrate)
[1] = target: TNF-α converting enzyme (TACE) (Homo sapiens, UniProt P78536); assay: TACE inhibition (fluorescent peptidyl substrate)
[2] = Table 10, read-out: MMP-13 IC50
[3] = Table 11, read-out: MMP-13 IC50

TNF-α converting enzyme (TACE), sequence (P78536 215-824, species assumed): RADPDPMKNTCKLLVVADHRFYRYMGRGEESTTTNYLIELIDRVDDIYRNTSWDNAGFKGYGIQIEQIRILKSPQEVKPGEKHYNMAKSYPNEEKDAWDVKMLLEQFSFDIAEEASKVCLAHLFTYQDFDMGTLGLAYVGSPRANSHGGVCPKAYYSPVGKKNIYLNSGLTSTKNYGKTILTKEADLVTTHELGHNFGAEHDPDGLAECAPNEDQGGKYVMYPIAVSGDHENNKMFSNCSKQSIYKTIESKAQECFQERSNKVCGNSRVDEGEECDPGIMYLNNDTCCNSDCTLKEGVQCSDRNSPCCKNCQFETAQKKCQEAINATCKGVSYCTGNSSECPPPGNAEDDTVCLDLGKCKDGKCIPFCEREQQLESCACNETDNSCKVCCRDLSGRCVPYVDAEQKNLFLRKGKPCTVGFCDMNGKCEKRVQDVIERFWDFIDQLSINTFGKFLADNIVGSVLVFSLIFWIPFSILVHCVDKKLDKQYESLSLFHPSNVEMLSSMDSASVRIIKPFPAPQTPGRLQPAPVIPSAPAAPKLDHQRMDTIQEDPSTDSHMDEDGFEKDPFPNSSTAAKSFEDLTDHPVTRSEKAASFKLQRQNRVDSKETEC

Structure (SMILES): CC1(C)SCCN(S(=O)(=O)c2ccc(OCC#CCCCCO)cc2)[C@H]1C(=O)NO [Example 269, (3S)-N-Hydroxy-4-([4-[(7-hydroxy-2-heptynyl)oxy]phenyl}sulfonyl)-2,2-dimethyl-3-thiomorpholinecarboxamide]
IC50 (MMP-1; Table 10, read-out: MMP-1 IC50): 101 nM | IC50 (MMP-13; [2]): 17 nM | IC50 ([1]; Table 10, read-out: TACE IC50): 53 nM

Structure (SMILES): CC#CCOc1ccc(S(=O)(=O)NC(C(=O)NO)c2ccc(OCCc3scnc3C)cc2)cc1 (stereo not shown) [Example 208, 2-({[4-(2-Butynyloxy)phenyl]sulfonyl}amino)-N-hydroxy-2-{4-[2-(4-methyl-1,3-thiazol-5-yl)ethoxy]phenyl}acetamide]
IC50 (MMP-1; read-out: MMP-1 IC50): > 10000 nM | IC50 (MMP-13; read-out: MMP-13 IC50): 230 nM | IC50 ([1]; read-out: TACE IC50): 69 nM

Structure (SMILES): CC#CCOc1ccc(S(=O)(=O)NC(C(=O)NO)c2ccc(OCCN(C)C)cc2)cc1 (stereo not shown) [Example 207, 2-({[4-(2-Butynyloxy)phenyl]sulfonyl}amino){4-[2-(dimethylamino)ethoxy]phenyl}-N-hydroxyacetamide]
IC50 (MMP-1; read-out: MMP-1 IC50): > 10000 nM | IC50 (MMP-13; read-out: MMP-13 IC50): 112 nM | IC50 ([1]; read-out: TACE IC50): 53 nM

Structure (SMILES): C#CCOc1ccc(S(=O)(=O)N2CCSC(C)(C)[C@@H]2C(=O)NO)cc1 [Example 258, (3S)-N-Hydroxy-2,2-dimethyl-4-{[4-(2-propynyloxy)phenyl]sulfonyl}-3-thiomorpholine Carboxamide]
IC50 (MMP-1; Table 9, read-out: MMP-1 IC50): 0.6 nM | IC50 (MMP-13; Table 9, read-out: MMP-13 IC50): 0.8 nM | IC50 ([1]; Table 9, read-out: TACE IC50): 19 nM

Structure (SMILES): CC#CCOc1ccc(S(=O)(=O)N2CCNCCC2C(=O)NO)cc1 (stereo not shown) [Example 292, 4-{[4-(2-Butynyloxy)phenyl]sulfonyl}-N-hydroxy-1,4-diazepane-5-carboxamide]
IC50 (MMP-1; read-out: MMP-1 IC50): 274 nM | IC50 (MMP-13; read-out: MMP-13 IC50): 33 nM | IC50 ([1]; read-out: TACE IC50): 24 nM

Structure (SMILES): CC#CCOc1ccc(S(=O)(=O)N2CCN(C)CCC2C(=O)NO)cc1 (stereo not shown) [Example 293, 4-{[4-(2-Butynyloxy)phenyl]sulfonyl}-N-hydroxy-1-methyl-1,4-diazepane-5-carboxamide]
IC50 (MMP-1; read-out: MMP-1 IC50): 238 nM | IC50 (MMP-13; MMP-13 IC50): 21 nM | IC50 ([1]; read-out: TACE IC50): 23 nM

Structure (SMILES): CC#CCOc1ccc(S(=O)(=O)N2CCN(C(=O)OC(C)(C)C)CCC2C(=O)NO)cc1 (stereo not shown) [Example 291, tert-Butyl 4-{[4-(2-Butynyloxy)phenyl]sulfonyl}-5[(hydroxyamino)carbonyl]-1,4-diazepane-1-carboxylate]
IC50 (MMP-1; read-out: MMP-1 IC50): 92 nM | IC50 ([1]; read-out: TACE IC50): 74 nM

Structure (SMILES): CC#CCOc1ccc(S(=O)(=O)N2[C@H](C)CSC(C)(C)[C@@H]2C(=O)NO)cc1 [Example 271, (3S,5R)-4-{[4-(2-Butynyloxy)phenyl]sulfonyl}-N-hydroxy-2,2,5-trimethyl-3-thiomorpholinecarboxamide]
IC50 (MMP-1; Table 11, read-out: MMP-1 IC50): 47 nM | IC50 (MMP-13; [3]): 88 nM | IC50 ([1]; Table 11, read-out: TACE IC50): 45 nM

Structure (SMILES): CC#CCOc1ccc(S(=O)(=O)NC(C(=O)NO)c2ccc(OCCOCCOC)cc2)cc1 (stereo not shown) [Example 210, 2-({[4-(2-Butynyloxy)phenyl]sulfonyl}amino)-N-hydroxy-2-{4-[2-(2-methoxyethoxy)ethoxy]phenyl}acetamide]
IC50 (MMP-1; read-out: MMP-1 IC50): > 10000 nM | IC50 (MMP-13; read-out: MMP-13 IC50): 278 nM | IC50 ([1]; read-out: TACE IC50): 17 nM

Structure (SMILES): CC#CCOc1ccc(S(=O)(=O)NC(C(=O)NO)c2ccc(OCCNC)cc2)cc1 (stereo not shown) [Example 204]
IC50 (MMP-1; MMP-1 IC50): ~10000 nM

Structure (SMILES): CCC#CCOc1ccc(S(=O)(=O)N2CCSC(C)(C)[C@@H]2C(=O)NO)cc1 [Example 259, (3S)-N-Hydroxy-2,2-dimethyl-4-{[4-(2-pentynyloxy)phenyl]sulfonyl}-3-thiomorpholine Carboxamide]
IC50 (MMP-1; Table 9, read-out: MMP-1 IC50): 5.9 nM | IC50 (MMP-13; Table 9, read-out: MMP-13 IC50): 5 nM | IC50 ([1]; Table 9, read-out: TACE IC50): 28 nM

Structure (SMILES): CC#CCOc1ccc(S(=O)(=O)N2C=CSC(C)(C)[C@@H]2C(=O)NO)cc1 [Example 379, (3S)-4-{[4-(2-Butynyloxy)phenyl]sulfonyl}-N-hydroxy-2,2-dimethyl-3,4-dihydro-2H-1,4-thiazine-3-carboxamide]
IC50 (MMP-1; Table 11, read-out: MMP-1 IC50): 316 nM | IC50 (MMP-13; [3]): 271 nM | IC50 ([1]; Table 11, read-out: TACE IC50): 16 nM

Structure (SMILES): CC#CCOc1ccc(S(=O)(=O)N2CCSC3(CCN(Cc4ccccc4)CC3)C2C(=O)NO)cc1 (stereo not shown) [Example 241, 9-Benzyl-4-{[4-(2-butynyloxy)phenyl]sulfonyl}-N-hydroxy-1-thia-4,9-diazaspiro[5.5]undecane-5-carboxamide]
IC50 (MMP-1; Table 9, read-out: MMP-1 IC50): 3.1 nM | IC50 (MMP-13; Table 9, read-out: MMP-13 IC50): 0.5 nM | IC50 ([1]; Table 9, read-out: TACE IC50): 786 nM

Structure (SMILES): CC(=O)OCCCCC#CCOc1ccc(S(=O)(=O)N2CCSC(C)(C)[C@@H]2C(=O)NO)cc1 [Example 268, 7-[4-({(3S)-3-[(Hydroxyamino)carbonyl]-2,2-dimethylthiomorpholinyl}sulfonyl)phenoxy]-5-heptynyl Acetate]
IC50 (MMP-1; Table 10, read-out: MMP-1 IC50): 29 nM | IC50 (MMP-13; [2]): 2.9 nM | IC50 ([1]; Table 10, read-out: TACE IC50): 78 nM

Structure (SMILES): CC#CCOc1ccc(S(=O)(=O)N(C)C(CSCc2cccnc2)C(=O)NO)cc1 (stereo not shown) [Example 155, 2-[(4-but-2-ynyloxy-Benenesulfonyl)-methyl-amino]-N-hydroxy-3-(pyridin-3-ylmethylsulfanyl)-butyramide]
IC50 (MMP-13; read-out: MMP-13 IC50): 4.8 nM

Structure (SMILES): CC#CCOc1ccc(S(=O)(=O)N2C[C@H](CC(=O)N3CCN(C)CC3)SC(C)(C)[C@@H]2C(=O)NO)cc1 [Example 283, (3S,6S)-4-{[4-(2-Butynyloxy)phenyl]sulfonyl}-N-hydroxy-2,2-dimethyl-6-[2-(4-methyl-1-piperazinyl)-2-oxoethyl]-3-thiomorpholinecarboxamide hydrochloride]
IC50 (MMP-1; Table 11, read-out: MMP-1 IC50): 28 nM | IC50 (MMP-13; [3]): 23 nM | IC50 ([1]; Table 11, read-out: TACE IC50): 143 nM

Structure (SMILES): CC#CCOc1ccc(S(=O)(=O)N2[C@@H](C(=O)NO)C(C)(C)SC[C@@H]2C)cc1 [Example 270, (3S,5S)-4-{[4-(2-Butynyloxy)phenyl]sulfonyl}-N-hydroxy-2,2,5-trimethyl-3-thiomorpholinecarboxamide]
IC50 (MMP-1; Table 11, read-out: MMP-1 IC50): 32 nM | IC50 (MMP-13; [3]): 61 nM | IC50 ([1]; Table 11, read-out: TACE IC50): 86 nM

Structure (SMILES): CC#CCOc1ccc(S(=O)(=O)NC(CC(C)C)C(=O)NO)cc1 (stereo not shown) [Example 79]
% Inhibition at 1 uM (In Vitro Inhibition of TACE) ([1]; 1 uM, Table 15): 107% | IC50 ([1]; read-out: IC 50 nM (In Vitro Inhibition of TACE), Table 15): 5.7 ± 2.5 nM

Structure (SMILES): CC#CCOc1ccc(S(=O)(=O)N[C@H](CCCCNC(=O)c2sccc2Cl)C(=O)NO)cc1 [Example 352, N-[(5R)-5-({[4-(But-2-ynyloxy)phenyl]sulfonyl}amino)-6-(hydroxyamino)-6-oxohexyl]-3-chlorothiophene-2-carboxamide]
IC50 ([1]; IC 50 nM (In Vitro Inhibition of TACE), Table 15): 4.96 nM

More lines, now with the values ahead:

IC50 (MMP-1; read-out: MMP-1 IC50): 40 nM | IC50 (MMP-13; read-out: MMP-13 IC50): 4.5 nM | IC50 ([1]; read-out: TACE IC50): 7.4 nM
Structure (SMILES): CC#CCOc1ccc(S(=O)(=O)N(C)C(C(=O)NO)C(C)C)cc1 (stereo not shown) [Example 9, 2-[(4-but-2-ynyloxy-Benzenesulfonyl)-methyl-amino]-N-hydroxy-3-methyl-butyramide]

IC50 (MMP-1; read-out: MMP-1 IC50): ~10000 nM | IC50 (MMP-13; read-out: MMP-13 IC50): 146 nM | IC50 ([1]; read-out: TACE IC50): 24 nM
Structure (SMILES): CC#CCOc1ccc(S(=O)(=O)NC(C(=O)NO)c2ccc(OCCN3CCCC3)cc2)cc1 (stereo not shown) [Example 205, 2-({[4-(2-Butynyloxy)phenyl]sulfonyl}amino)-N-hydroxy-2-{4-[2-(1-pyrrolidinyl)ethoxy]phenyl}acetamide]

IC50 (MMP-1; Table 11, read-out: MMP-1 IC50): 35 nM | IC50 (MMP-13; [3]): 29 nM | IC50 ([1]; Table 11, read-out: TACE IC50): 42 nM
Structure (SMILES): CC#CCOc1ccc(S(=O)(=O)N2C[C@H](CC(N)=O)SC(C)(C)[C@@H]2C(=O)NO)cc1 [Example 280, (3S,6S)-6-(2-Amino-2-oxoethyl)-4-{[4-(2-butynyloxy)phenyl]sulfonyl}-N-hydroxy-2,2-dimethyl-3-thiomorpholinecarboxamide]

IC50 (MMP-1; Table 11, read-out: MMP-1 IC50): 25 nM | IC50 (MMP-13; [3]): 20 nM | IC50 ([1]; Table 11, read-out: TACE IC50): 95 nM
Structure (SMILES): CC#CCOc1ccc(S(=O)(=O)N2C[C@H](CC(=O)N3CCOCC3)SC(C)(C)[C@@H]2C(=O)NO)cc1 [Example 282, (3S,6S)-4-{[4-(2-Butynyloxy)phenyl]sulfonyl}-N-hydroxy-2,2-dimethyl-6-[2-(4-morpholinyl)-2-oxoethyl]-3-thiomorpholinecarboxamide]

IC50 (MMP-1; Table 11, read-out: MMP-1 IC50): 17 nM | IC50 (MMP-13; [3]): 6.7 nM | IC50 ([1]; Table 11, read-out: TACE IC50): 20 nM
Structure (SMILES): CC#CCOc1ccc(S(=O)(=O)N2C[C@H](CC(=O)O)SC(C)(C)[C@@H]2C(=O)NO)cc1 [Example 278, [(2S,5S)-4-{[4-(2-Butynyloxy)phenyl]sulfonyl}-5-[(hydroxyamino)carbonyl]-6,6-dimethylthiomorpholinyl}acetic Acid]

IC50 (MMP-1; Table 10, read-out: MMP-1 IC50): 13 nM | IC50 (MMP-13; [2]): 11 nM | IC50 ([1]; Table 10, read-out: TACE IC50): 173 nM
Structure (SMILES): CC1(C)SCCN(S(=O)(=O)c2ccc(OCC#Cc3ccccc3)cc2)[C@H]1C(=O)NO [Example 254, (3S)-N-Hydroxy-2,2-dimethyl-4-({4-[(3-phenyl-2-propynyl)oxy]phenyl}sulfonyl)-3-thiomorpholine Carboxamide]

IC50 (MMP-1; Table 10, read-out: MMP-1 IC50): 11 nM | IC50 (MMP-13; [2]): 2.5 nM | IC50 ([1]; Table 10, read-out: TACE IC50): 35 nM
Structure (SMILES): CC1(C)SCCN(S(=O)(=O)c2ccc(OCC#CCF)cc2)[C@H]1C(=O)NO [Example 264, (3S)-4-({4-[(4-Fluoro-2-butynyl)oxy]phenyl}sulfonyl)-N-hydroxy-2,2-dimethyl-3-thiomorpholine Carboxamide]

IC50 (MMP-1; read-out: MMP-1 IC50): ~10000 nM | IC50 (MMP-13; read-out: MMP-13 IC50): 132 nM | IC50 ([1]; read-out: TACE IC50): 39 nM
Structure (SMILES): CC#CCOc1ccc(S(=O)(=O)NC(C(=O)NO)c2ccc(OCCOCCOCCOC)cc2)cc1 (stereo not shown) [Example 209, 2-({[4-(2-Butynyloxy)phenyl]sulfonyl}amino)-N-hydroxy-2-(4-{2-[2-(2-methoxyethoxy)ethoxy]ethoxy}phenyl)acetamide]

IC50 (MMP-1; Table 11, read-out: MMP-1 IC50): 21 nM | IC50 (MMP-13; [3]): 4.5 nM | IC50 ([1]; Table 11, read-out: TACE IC50): 46 nM
Structure (SMILES): CC#CCOc1ccc(S(=O)(=O)N2C[C@H](CC(=O)NO)SC(C)(C)[C@@H]2C(=O)NO)cc1 [Example 279, (3S,6S)-4-{[4-(2-Butynyloxy)phenyl]sulfonyl}-N-hydroxy-6-[2-(hydroxyamino)-2-oxoethyl]-2,2-dimethyl-3-thiomorpholinecarboxamide]

— US6716833B2, “Acetylenic α-amino acid-based sulfonamide hydroxamic acid tace inhibitors” (priority 1999, dated 2004)
